Test results published in patent US20250154105A1, “POLYCYCLIC COMPOUND AND USE THEREOF” (TYK MEDICINES, INC., priority 2021, published 2025).

How the values were obtained:
[1] = tested on: human pleural mesothelioma cells NCI-H226; experiment: Cell anti-proliferation experiment (CCK8), NCI-H226; type: cell-based
Description: TEST EXAMPLE 1 CELL ANTI-PROLIFERATION EXPERIMENT
Determination of proliferation inhibition of YAP-TEAD inhibitor compounds on human pleural mesothelioma cells NCI-H226
Experimental materials and equipments: Human pleural mesothelioma cells NCI-H226 was purchased from NANJING COBIOER BIOSCIENCES CO., LTD. RPMI-1640 medium (Bio-Channel), DMSO (dimethyl sulfoxide), CCK8 (WST-8) Cell Assay Kit (Beyotime), 0.25% EDTA-Tripsin (trypsin digest), 1×PBS (phosphate buffer, PH7.2), 96-well plate (Corning), fetal bovine serum (FBS), 10,000 U/mL penicillin-G/streptomycin, high-speed freezing centrifuge (EPPENDORF 5810R), enzyme-linked immunosorbent assay (Tecan Spark).
1. Cell plating • A) Tumor cells were cultured to 80-90% density in RPMI-1640 (containing 10% FBS and 100 U/mL penicillin-G/streptomycin) under the condition of 37° C., 5% CO2 and saturated humidity. • B) The culture medium was removed from the 10 cm culture dish. • C) Cells were washed with 10 ml 1×PBS. • D) 4 ml of 0.25% EDTA-Tripsin was added to digest pancreatin for 5 minutes in an incubator at 37° C. and 5% CO2. Then the mixture was transferred to a 15 ml centrifuge tube, and centrifuged for 5 minutes at 200 g. The supernatant was discarded to obtain cell precipitation. • E) The cell precipitation was resuspended with 4 ml of […], counted and adjusted to 10,000 cells/ml. • F) The cell suspension was added to a 96-well plate with a volume of 100 μL per well and cultured overnight in an incubator at 37° C. and 5% CO2.
• Compound dilution • A) Preparation of gradient dilution solutions of the tested compounds: the tested compounds was configured to 1 mM stock solution. Then […] of stock solution was dissolved in 1.5 ml of DMSO-free culture solution, and then 3-fold continuous gradient dilution with 0.1% DMSO culture solution was performed to get a total of 9 concentrations. The diluted concentrations of the compound were as follows: 333.33 nM, 111.11 nM, 37.03 nM, 12.35 nM, 4.15 nM, 1.37 nM, 0.46 nM, 0.15 nM • B) After full mixing, 100 μL of culture compound solution was taken to replace the culture solution in the cell culture plate, with 4 duplicated wells at each concentration; • C) The cells were transferred to the incubator to incubate for 3 days.
• A) the cell culture plate was taken out and added with 10 μl of CCK-8 (WST-8) solution per well in the biosafety cabinet; • B) The cell culture plate was put back into the incubator and continued to incubate for 3 hours; • C) 450 nm wavelength was selected to measure absorbance value on TECAN enzyme linked immunosorbent assay detector.
The following formula was used to calculate the cell viability (% Cell Viability); • Cell Viability (%)=[A(Drug-added)-A(Blank)]/[A(0 Drug-added)-A(blank)][…] • A (Drug-added): The absorbance of wells containing cells, CCK8 solution, and drug solution. • A (Blank): The absorbance of wells containing culture medium and CCK8 solution, but without cells. • A (0 Drug-added): The absorbance of wells containing cells, CCK8 solution, but without drug solution. • Cell viability: Cell proliferation viability or cytotoxicity viability was determined by the IC50 value obtained by curve fitting using GraphPad Prism 8 software.

YAP-TEAD = YAP-TEAD inhibitor activity by Nano luciferase method (8xGTiiC-nLuc reporter in 293T cells); type: cell-based; settings: Homo sapiens, HEK-293T, 48 hours incubation, read-out: Nano-luciferase detection (IC50)
Description: EXAMPLE 2: YAP-TEAD INHIBITOR ACTIVITY WAS DETECTED BY NANO LUCIFERASE METHOD
(1) Experimental materials and equipments: 293T cells were purchased from NANJING COBIOER BIOSCIENCES CO., LTD. DMEM medium (High sugar, no phenol red, Bio-Channel), DMSO (dimethyl sulfoxide), Lipo6000™ transfection reagent (Beyotime), pGL3B-8xGTiiC-nLuc-CMV-fLuc plasmid, 0.25% EDTA-Tripsin (trypsin digest), 1×PBS (phosphate buffer, PH7.2), 96-well white cell culture plate (PerkinElmer), fetal bovine serum (FBS), 10,000 U/mL penicillin-G/streptomycin, high-speed freezing centrifuge (EPPENDORF 5810R), 37° C. CO2 incubator, Vi-cell® Cell Counter, Envision Microplate Reader (PerkinElmer).
The revived 293T cells were inoculated into a 10 cm culture dish and placed in an incubator with 5% CO2, and cultured at constant temperature of 37° C. To ensure transfection efficiency, cells at logarithmic phase (cell density of approximately 50%-70%) should be used.
On the day before transfection, cells at the logarithmic phase were digested with Trypsin-EDTA, and culture medium was added to terminate digestion. The cell suspension was prepared by blowing and mixing using a pipette.
Cell concentration was measured using Vi-cell, and the cell suspension was diluted to a suspension of 5*10^^5 cells per milliliter. After preparing the cell suspension, the suspension was gently mixed. 10 ml of liquid was added to a 10 cm culture dish. In this way, the number of cells in each 10 cm culture dish was 5*10^^6. The cells were incubated at a constant temperature of 37° C. for 1 day in an incubator with 5% CO2.
Two clean and sterile centrifuge tubes were taken and added with 750 μL opti-MEM Medium without antibiotics and serum, respectively. Then one tube was added with 15 μg Plasmid (pGL3B-8xGTiiC-nLuc-CMV-fLuc), and gently blew and mixed well using a pipette; the other tube was added with Lipo6000 transfection reagent, and gently blew and mixed using a pipette. After standing at room temperature for 5 minutes, the culture solution containing DNA was added gently to the culture solution containing Lipo6000 transfection reagent, and mixed well by gently inverting the centrifuge tube, then standing at room temperature for 5 minutes.
The above mixture was added evenly to a 10 cm culture dish and replaced with fresh complete culture medium after 6 hours of cultivation.
After transfection for 1 day, cells were digested with Trypsin EDTA, and culture medium was added to terminate the digestion. The cell suspension was prepared by blowing and mixing using a pipette.
Cell concentration was measured using Vi-cell, and the cell suspension was diluted to a suspension of 20000 cells per milliliter.
After preparing the cell suspension, the suspension was gently mixed, and added to 96-well plate with 100 μL per well. Thus, the density of the cells to be tested is 2000 cells per well.
The inoculated cell culture plate was placed in the incubator for cultivation, and after about 24 hour, compounds with concentration gradient were added.
10 mM compound stock solution was diluted with culture medium to 50 μM. Compound solution of 50 μM was added to the third column of the deep well plate, 216 μL of culture medium containing 0.5% DMSO was added to the fourth to eleventh columns, successively.
Gradient dilution: taking 100 μL of solution from the third column and adding the solution to the fourth column and mixing well; then taking 100 µL of solution from the fourth column again and adding the solution to the fifth column, repeating this operation until the eleventh column.
Taking 25 μL of compound solution from the deep well plate and adding it to a 96-well culture plate using a multi-channel pipette. Repeating four times on the 96 well plate for each compound. Finally, a concentration gradient of 1:3.16 was formed in the 96-well plate with a maximum concentration of 10,000 nM. The • (5) Addition of Nano Luciferase Detection Reagent and Read […]

Row | SMILES | IC50 [1] | IC50 (YAP-TEAD)
1 | O=C(O)c1ccc2c(ccc(=O)n2-c2ccc(C(F)(F)F)cc2)c1 [Example T-1] | 1000 to 5000 nM | 1000 to 5000 nM
2 | CC(C)(C)OC(=O)c1ccc2c(c1)c(=O)ccn2-c1ccc(C(F)(F)F)cc1 [Example T-4] | – | 1000 to 5000 nM
3 | N#CC1CN(C(=O)c2ccc3c(ccc(=O)n3-c3ccc(C(F)(F)F)cc3)c2)C1 [Example T-21] | 1000 to 5000 nM | 1000 to 5000 nM
4 | O=C(c1ccc2c(ccc(=O)n2-c2ccc(C(F)(F)F)cc2)c1)N1CC(O)C1 [Example T-22] | 1000 to 5000 nM | 1000 to 5000 nM
5 | C[C@@H](NC(=O)c1ccc2c(ccc(=O)n2-c2ccc(C(F)(F)F)cc2)c1)c1ccccn1 [Example T-24] | 1000 to 5000 nM | 1000 to 5000 nM
6 | COC[C@@H](C)NC(=O)c1ccc2c(c1)c(=O)ccn2-c1ccc(C(F)(F)F)cc1 [Example T-36] | – | 1000 to 5000 nM
7 | O=C(c1ccc2c(c1)c(=O)ccn2-c1ccc(C(F)(F)F)cc1)N1CC(O)C1 [Example T-37] | – | 1000 to 5000 nM
8 | Cn1cc2c(=O)n(-c3ccc(C(F)(F)F)cc3)c3ccc(C(=O)N4CC(O)C4)cc3c2n1 [Example T-103] | 1000 to 5000 nM | –
9 | Cn1cc2c(=O)n(-c3ccc(C(F)(F)F)cc3)c3ccc(C(=O)N4CC(C#N)C4)cc3c2n1 [Example T-104] | 1000 to 5000 nM | –
10 | C[C@@H](NC(=O)c1ccc2c(c1)c1nn(C)cc1c(=O)n2-c1ccc(C(F)(F)F)cc1)c1ccccn1 [Example T-106] | 1000 to 5000 nM | –
11 | CN(C)C(=O)c1ccc2c(c1)c1nn(C)cc1c(=O)n2-c1ccc(C(F)(F)F)cc1 [Example T-112] | 1000 to 5000 nM | –
12 | COC[C@@H](C)NC(=O)c1ccc2c(c1)c1nn(C)cc1c(=O)n2-c1ccc(C(F)(F)F)cc1 [Example T-119] | 1000 to 5000 nM | –
13 | C[C@H](NC(=O)c1ccc2c(c1)c1nn(C)cc1c(=O)n2-c1ccc(C(F)(F)F)cc1)c1ccncc1 [Example T-147] | 1000 to 5000 nM | –
14 | C[C@H](NC(=O)c1ccc2c(c1)c1c(c(=O)n2-c2ccc(C(F)(F)F)cc2)C(F)CCC1)c1ccccn1 (some centres unmarked) [Example T-305] | – | ≤ 1000 nM
15 | C[C@H](NC(=O)c1ccc2c(c1)c1c(c(=O)n2-c2ccc(C(F)(F)F)cc2)CC(F)(F)CC1)c1ccccn1 [Example T-308] | – | ≤ 1000 nM
16 | C[C@H](NC(=O)c1ccc2c(c1)c1c(c(=O)n2-c2ccc(C(F)(F)F)cc2)C(F)(F)CCC1)c1ccccn1 [Example T-309] | – | ≤ 1000 nM
17 | CC1OCc2c1c(=O)n(-c1ccc(C(F)(F)F)cc1)c1ncc(C(=O)N[C@@H](C)c3ccccn3)cc21 (some centres unmarked) [Example T-438] | – | 1000 to 5000 nM
18 | CCS(=O)(=O)Nc1ccc2c(c1)c(C)cc(=O)n2-c1ccc(C(F)(F)F)cc1 [Example T-442] | – | ≤ 1000 nM
19 | CC(=O)Nc1ccc2c(c1)c(C)cc(=O)n2-c1ccc(C(F)(F)F)cc1 [Example T-444] | – | 1000 to 5000 nM
20 | Cc1cc2cc(C(=O)N[C@@H](C)c3cccc(N)n3)cnc2n(-c2ccc(C(F)(F)F)cc2)c1=O [Example T-461] | – | ≤ 1000 nM

Further lines, results first:

Row | IC50 [1] | IC50 (YAP-TEAD) | SMILES
21 | ≤ 1000 nM | ≤ 1000 nM | CC(C)NC(=O)c1ccc2c(ccc(=O)n2-c2ccc(C(F)(F)F)cc2)c1 [Example T-3]
22 | 1000 to 5000 nM | ≤ 1000 nM | O=C(O)c1ccc2c(c1)c(=O)ccn2-c1ccc(C(F)(F)F)cc1 [Example T-5]
23 | ≤ 1000 nM | ≤ 1000 nM | CC(C)NC(=O)c1ccc2c(c1)c(=O)ccn2-c1ccc(C(F)(F)F)cc1 [Example T-6]
24 | ≤ 1000 nM | ≤ 1000 nM | CNS(=O)(=O)c1ccc2c(c1)-c1ncn(C)c1CN2c1ccc(C(F)(F)F)cc1 [Example T-7]
25 | ≤ 1000 nM | ≤ 1000 nM | CNS(=O)(=O)c1ccc2c(c1)c1ncn(C)c1c(=O)n2-c1ccc(C(F)(F)F)cc1 [Example T-15]
26 | ≤ 1000 nM | ≤ 1000 nM | COC[C@H](C)NC(=O)c1ccc2c(c1)-c1ncn(C)c1CN2c1ccc(C(F)(F)F)cc1 [Example T-16]
27 | 1000 to 5000 nM | ≤ 1000 nM | C[C@H](NC(=O)c1ccc2c(c1)c(=O)ccn2-c1ccc(C(F)(F)F)cc1)c1ccccn1 [Example T-17]
28 | ≤ 1000 nM | ≤ 1000 nM | CNS(=O)(=O)c1ccc2c(c1)-c1nn(C)cc1CN2c1ccc(C(F)(F)F)cc1 [Example T-18]
29 | ≤ 1000 nM | ≤ 1000 nM | CNS(=O)(=O)c1ccc2c(c1)-c1cn(C)nc1CN2c1ccc(C(F)(F)F)cc1 [Example T-19]
30 | ≤ 1000 nM | ≤ 1000 nM | CNS(=O)(=O)c1ccc2c(c1)c1ncn(CCOC)c1c(=O)n2-c1ccc(C(F)(F)F)cc1 [Example T-20]
31 | ≤ 1000 nM | ≤ 1000 nM | CNS(=O)(=O)c1ccc2c(c1)c1nn(C)cc1c(=O)n2-c1ccc(C(F)(F)F)cc1 [Example T-31]
32 | ≤ 1000 nM | ≤ 1000 nM | CNS(=O)(=O)c1ccc2c(c1)c1nc[nH]c1c(=O)n2-c1ccc(C(F)(F)F)cc1 [Example T-33]
33 | 1000 to 5000 nM | ≤ 1000 nM | C[C@@H](NC(=O)c1ccc2c(c1)c(=O)ccn2-c1ccc(C(F)(F)F)cc1)c1ccccn1 [Example T-34]
34 | 1000 to 5000 nM | ≤ 1000 nM | COC[C@H](C)NC(=O)c1ccc2c(c1)c(=O)ccn2-c1ccc(C(F)(F)F)cc1 [Example T-35]
35 | – | ≤ 1000 nM | C[C@H](NC(=O)c1ccc2c(c1)c1c(c(=O)n2-c2ccc(C(F)(F)F)cc2)CC(F)CC1)c1ccccn1 (some centres unmarked) [Example T-304]
